{"source": "patent US5691348A", "about": "“Pyridyl imidazole derivatives and processes for the preparation thereof” (Daewoo Electronics Co., Ltd., priority 1994, dated 1997)", "key": {"[1]": {"system": "unanesthetized dogs", "experiment": "Maximum blood pressure lowering effect in unanesthetized dogs at different amounts", "assay_type": "in vivo, dog", "experimental": "(§1) A number of dog was fed freely in a feeding room and those weighing 7 to 12 kg in good health were selected regardless of their gender.\n(§2) The test dog was anesthetized with 30 mg/kg of pentobarbital sodium by intravenous injection and the left femoral artery and femoral vein were separated carefully. Silicone catheter, specially prepared and filled with saline treated with heparin (1,000 IU/ml), was cannulated into the blood vessels. After the surgery, the dog was constrained to measure the blood pressure continuously with Gould 2000 physiograph adapted to a Grass P23XL pressure transducer; and the heart rate was monitored with ECG/Biotacho amplifier. The dog was tested at least 2 days after the surgery.\n(§3) 10 mg/kg of furosemide was injected intramuscularly 18 hours (in case of intravenous injection, 2 hours) before the beginning of the test (administration of the test compound) to improve the activity of renin in blood plasma. After the injection of furosemide, neither food nor water was provided. The test compound was suspended in Tween 80 and administered in an amount of 20 mg/kg orally. The blood pressure and heart rate were measured up to 8 hours after the administration of each test compound.\nThe maximum blood pressure lowering effect of the present compounds and the control compounds were determined in different amounts of administration using the same method as (i) and the results are given in Table 4."}, "[2]": {"system": "unanesthetized dogs", "experiment": "Blood pressure variation with time in unanesthetized dogs", "assay_type": "in vivo, dog", "conditions": "1.0 mg, oral", "experimental": "as §1, §2\nas §3, with “The test compound was suspended in Tween 80 and administered in an amount of 20 mg/kg orally.” left out"}, "[3]": {"system": "angiotensin II receptor", "experiment": "Angiotensin II receptor binding assay ([3H] angiotensin II)", "parameters": "species or system rat (Sprague-Dawley adrenal cortex/medulla; Wistar liver)", "conditions": "25° C., 60 minutes, test concentration not given", "experimental": "1. Angiotensin II receptor binding assay\nIn accordance with the procedure disclosed in Chiu, A. T. et al., Eur. J. Pharm., 157, 13(1981), a ligand marked with a radioisotope was reacted with an angiotensin II receptor and the reactant was filtered with a glass fiber to remove unreacted ligand. After washing the filter, the amount of the remaining isotope was measured to determine the binding activity of the ligand, as described below in detail.\nSprague-Dawley rats and Wistar rats of 250 to 350 g (from The Korea Research Institute of Chemical Technology) were tested and the test procedures were carried out at 4° C., unless otherwise specified. Adrenal gland was separated from the Sprague-Dawley rats (liver, in the case of Wistar rats) into cortex and medulla. The separated adrenal cortex and medulla were washed with a sucrose buffer solution (0.2M sucrose, 1 mM EDTA, 10 mM Tris, Ph 7.2) and homogenized in the same buffer solution by using a Teflon pestle and a Brinkmann homogenizer. The homogenates were centrifuged at 3,000× g for 10 minutes to remove precipitates and further centrifuged at 12,000× g for 13 minutes. The final supernatants were centrifuged at 102,000× g for 1 hour to obtain precipitates, which were washed with a Tris buffer solution (50 mM Tris, 5 mM MgCl2, pH 7.2) and recentrifuged at 102,000× g for 1 hour. The resulting precipitates were immediately processed at the following step or stored at -70° C.\nThe precipitates were suspended in a Tris buffer solution. The amount of protein was determined by using a Bio-Rad DC protein analyzing kit and the protein concentration was adjusted to the amounts of: 0.2 to 0.3 mg/ml (Sprague-Dawley rat: adrenal cortex), 1.5 to 2.0 mg/ml (Sprague-Dawley rat: adrenal medulla), and 1.5 to 2.0 mg/ml (Wistar rat: liver). To the suspension, bovine serum albumin(BSA) was added to a concentration of 0.25 wt % and the resultant was immediately processed at the following step or stored at -70° C.\n50 μl (based on ligand) of [^3 H] angiotensin II (NEN, NET-446) and 10 μl of each of the test compounds with various concentrations were added to the buffer solution (50 mM Tris (pH 7.2), 5 mM MgCl2, 0.25% BSA) to adjust the final volume to be 0.5 ml. 100 μl of the receptor suspension was added thereto and the resulting solution was reacted for 60 minutes while stirring in a water bath at 25° C. 3 ml of cold buffer solution for analysis was added to cease the reaction. The isotope which was bound to the receptor was isolated from the resultant by using Brandel Cell Harvester System with Whatman glass fiber GF/C. After washing the filter, the radioactivity of the filter was determined by using a liquid scintillation counter. Binding inhibition(%) of the test compound was calculated as follows:\nBinding Inhibition(%)=[{(T-B)-(S-B)}/(T-B)]×100\nwherein T is the radioactivity (cpm) of the reaction product untreated with the test compound, S is the radioactivity (cpm) of the reaction product treated with the test compound, and B is the radioactivity (cpm) of blank test."}, "[4]": {"system": "renal hypertensive rat", "experiment": "Blood pressure lowering effect in renal hypertension", "assay_type": "in vivo, Sprague-Dawley rat", "conditions": "Amount 3 mg; intravenous or oral (not specified)", "from_the_text": "To induce renal hypertension, left renal artery of 4 week-old male Sprague-Dawley rat (from The Korea Research Institute of Chemical Technology) was ligated. The rat was anesthetized with ether and the surgical region on the left abdomen of the rat was shaved, disinfected, and then incised about 1 cm vertically. The renal artery near abdominal aorta was isolated carefully from surrounding tissues and veins, and then ligated completely with a suture (4/0 sterile surgical silk). The muscular strata and skin of the surgical area were sutured with a suture (4/0 sterile surgical silk). The surgical region was disinfected to prevent infection and thereafter, 200 to 250 mg/kg/day of cephazolin sodium was injected intramuscularly for 2 days. 6 to 8 days after the ligation, rats showing systolic pressure of more than 180 mmHg were selected for renal hypertension test. The blood pressure was determined by a tail-cuff method from the tail under unanesthetized condition (Gerold, M. et al., Arzneimittel-Forsch., 18, 1285(1968)).\nEach of the compounds to be tested was administered intravenously or orally into the renal hypertensive rat. The blood pressure of the rat was determined by direct method (Chiu, A. T. et al., J. Pharmacol. Exp. Ther., 250, 867(1989)) using a catheter. The rat was anesthetized with ketamine hydrochloride (125 mg/kg, i.p.) and a catheter was filled with saline and inserted into a carotid artery and […]. The surgical area was sutured with a metal clip. The rat was relaxed at least 3 hours and the catheter in the carotid artery was adapted to an isotec pressure transducer to determine the blood pressure and heart rate with a physiograph (Linearcorder WR3310). After the blood pressure was stabilized, the test compound was administered intravenously or orally. For intravenous administration, the administered volume and washing volume were 1.0 ml/kg and 0.2 ml, respectively. The blood pressure and heart rate were measured in regular intervals up to 24 hours after the administration of the test compound and compared with those measured after the administration of the control compound Losartan.\nThe test compound was dissolved in 0.05N KOH for intravenous administration and suspended in Tween 80 for oral administration."}}}
{"smiles": "CCCCc1nc2cc(-c3cccc[n+]3[O-])c(CO)nc2n1Cc1ccc(-c2ccccc2-c2nn[nH]n2)cc1", "note": "[Example 1, 2-Butyl-5-hydroxymethyl-6-(1-oxy-pyridin-2-yl)-3-[2'-(1H-tetrazol-5-yl)-biphenyl-4-ylmethyl]-3H-imidazo[4,5-b]pyridine]", "values": [{"measurement": "Maximum Blood Pressure Lowering Effect", "setting": "[1]; 0.3 mg/kg", "value": -17, "unit": "%"}, {"measurement": "Maximum Blood Pressure Lowering Effect", "setting": "[1]; 1 mg/kg", "value": -25, "unit": "%"}, {"measurement": "Maximum Blood Pressure Lowering Effect", "setting": "[2]; 0.5 hr", "value": -17.5, "unit": "%"}, {"measurement": "Maximum Blood Pressure Lowering Effect", "setting": "[2]; 1 hr", "value": -21.4, "unit": "%"}, {"measurement": "Maximum Blood Pressure Lowering Effect", "setting": "[2]; 2 hr", "value": -23.6, "unit": "%"}, {"measurement": "Maximum Blood Pressure Lowering Effect", "setting": "[2]; 4 hr", "value": -24.8, "unit": "%"}, {"measurement": "Maximum Blood Pressure Lowering Effect", "setting": "[2]; 6 hr", "value": -21.7, "unit": "%"}, {"measurement": "Maximum Blood Pressure Lowering Effect", "setting": "[2]; 8 hr", "value": -13.2, "unit": "%"}, {"measurement": "Binding Inhibition", "setting": "[3]", "value": 85.4, "unit": "%"}, {"measurement": "Maximum Blood Pressure Lowering Effect", "setting": "[4]", "value": -60, "unit": "%"}]}
